The source of these data is US20250092017A1, “2-PIPERIDYL OR 2-PYRAZOLYL SUBSTITUTED PYRIMIDINE COMPOUND SERVING AS EGFR INHIBITOR” (SUZHOU PUHE BIOPHARMA CO., LTD., priority 2022, published 2025).

SMILES strings stand for the structures.

The target of data set [1] is EGFR (L858R) (Homo sapiens, UniProt P00533, L858R). Kind of data set: MSA (Mobility Shift Assay) kinase activity, EGFR-L858R. The format is biochemical. Summed up:
(§1)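 Kinase preincubated with compound 10 min at room temperature, then reaction started with ATP plus substrate in 1x kinase buffer and run at room temperature. Substrate-to-product conversion read by mobility shift; % inhibition normalised to no-enzyme and no-compound controls, IC50 from variable-slope four-parameter fit.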

Data set [2] in a line: Liver microsome stability test, mouse. The format is in vitro ADME. The conditions noted are these: mouse liver microsomes 0.5 mg/ml, compound 1 μM, NADPH 1 mM, within 60 minutes. The procedure:
The compounds of the present disclosure were subjected to a liver microsome stability test. The compounds to be tested were co-incubated with liver microsomes of different species with or without the addition of NADPH. The final concentration of the compounds to be tested in the test system was 1 μM. The final concentration of NADPH was 1 mM, and the final concentration of liver microsomes was 0.5 mg/ml.
(Liver microsomes are vesicles of endoplasmic reticulum, rich in cytochrome P450 enzymes.)

Data set [3] has as its target T1, Ba/F3-TEL-EGFR-L858R-C797S (Homo sapiens, UniProt P00533, C797S/L858R, cells depend on it).
T1 construct: fused on or other part: N-terminal TEL (ETV6) oligomerising part fused to the EGFR intracellular/kinase part; P41212 (Transcription factor ETV6)
Kind of data set: CellTiter-Glo proliferation, Ba/F3-TEL-EGFR-L858R-C797S. Format: cell-based. As to conditions: 72 hours, read-out: Ba/F3-TEL-EGFR-L858R-C797S IC50/nM. In a few lines:
(§2)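 Ba/F3 lines dependent on the indicated EGFR variants were treated with compounds at a final DMSO concentration of 0.1% at 37 °C, 5% CO2. Viability was read by CellTiter-Glo luminescence, and inhibition rate was normalised to DMSO-treated cells (max) and medium-only wells (min). IC50 came from inhibition curves.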
(Cellular ATP, detected with luciferase, serves as a proxy for viable cell number.)

In data set [4] the test system is Ba/F3-FL-EGFR-del19-C797S. Kind of data set: CellTiter-Glo proliferation, Ba/F3-FL-EGFR-del19-C797S. The format is cell-based. The conditions noted are these: 72 h, proliferation, 72 hours, CellTiter-Glo; read-out: Ba/F3-FL-EGFR-del19-C797S IC50/nM. In a few lines:
as §2

Data set [5] deals with BaF3 (del19/T790M1C797S) tumor cells. Kind of data set: In vivo efficacy assay in BALB/c nude mice, subcutaneous BaF3 tumor. As to conditions: for TGI: based on final tumor volume. As to the method: In vivo efficacy assay in BALB/c nude mice. Details were as follows:
BaF3 (del19/T790M1C797S) tumor cells were cultured and inoculated into 6-8 weeks old female BALB/c nude mice (weighing about 20 g), with all mice being subcutaneously inoculated. The mice were cultured in an SPF-grade experimental environment, and all mice had free access to commercially certified standard diets. When the average tumor volume of the mice grew to about 150 mm^3, the test compound was orally administered daily. The dosage was as follows: blank group vehicle (DMSO/Solutol/H2O, 5/10/85). […] The tumor volume was measured three times a week with a two-dimensional caliper, and the animals were weighed every day. […] The volume calculation formula is: V=1/2a*b^2, where a represents the long diameter of the tumor, and b represents the short diameter of the tumor.

The target in data set [6] is Ba/F3-FL-EGFR-L858R (Homo sapiens, UniProt P00533, L858R, cells depend on it). Kind of data set: CellTiter-Glo proliferation, Ba/F3-FL-EGFR-L858R. As to conditions: 72 hours, read-out: Ba/F3-FL-EGFR-L858R IC50/nM. The format is cell-based. In a few lines:
as §2

Data set [7] has as its target T2, Ba/F3-FL-EGFR (Homo sapiens, UniProt P00533).
T2 construct: FL read as full length
Kind of data set: CellTiter-Glo proliferation, Ba/F3-FL-EGFR. The format is cell-based. The conditions noted are these: 72 hours, read-out: Ba/F3-FL-EGFR IC50/nM. In a few lines:
as §2

For data set [8], the target named is EGFR (L858R/T790M/C797S) (Homo sapiens, UniProt P00533, C797S/L858R/T790M). Kind of data set: MSA (Mobility Shift Assay) kinase activity, EGFR-L858R-T790M-C797S. The format is biochemical. In a few lines:
as §1

For data set [9], the target named is EGFR (wild-type) (Homo sapiens, UniProt P00533). Kind of data set: MSA (Mobility Shift Assay) kinase activity, EGFR wild type. The format is biochemical. As to conditions: read-out: EGFR wt/ IC50/nM. Summed up: as §1
Chain of EGFR (wild-type) (P00533 25-1210): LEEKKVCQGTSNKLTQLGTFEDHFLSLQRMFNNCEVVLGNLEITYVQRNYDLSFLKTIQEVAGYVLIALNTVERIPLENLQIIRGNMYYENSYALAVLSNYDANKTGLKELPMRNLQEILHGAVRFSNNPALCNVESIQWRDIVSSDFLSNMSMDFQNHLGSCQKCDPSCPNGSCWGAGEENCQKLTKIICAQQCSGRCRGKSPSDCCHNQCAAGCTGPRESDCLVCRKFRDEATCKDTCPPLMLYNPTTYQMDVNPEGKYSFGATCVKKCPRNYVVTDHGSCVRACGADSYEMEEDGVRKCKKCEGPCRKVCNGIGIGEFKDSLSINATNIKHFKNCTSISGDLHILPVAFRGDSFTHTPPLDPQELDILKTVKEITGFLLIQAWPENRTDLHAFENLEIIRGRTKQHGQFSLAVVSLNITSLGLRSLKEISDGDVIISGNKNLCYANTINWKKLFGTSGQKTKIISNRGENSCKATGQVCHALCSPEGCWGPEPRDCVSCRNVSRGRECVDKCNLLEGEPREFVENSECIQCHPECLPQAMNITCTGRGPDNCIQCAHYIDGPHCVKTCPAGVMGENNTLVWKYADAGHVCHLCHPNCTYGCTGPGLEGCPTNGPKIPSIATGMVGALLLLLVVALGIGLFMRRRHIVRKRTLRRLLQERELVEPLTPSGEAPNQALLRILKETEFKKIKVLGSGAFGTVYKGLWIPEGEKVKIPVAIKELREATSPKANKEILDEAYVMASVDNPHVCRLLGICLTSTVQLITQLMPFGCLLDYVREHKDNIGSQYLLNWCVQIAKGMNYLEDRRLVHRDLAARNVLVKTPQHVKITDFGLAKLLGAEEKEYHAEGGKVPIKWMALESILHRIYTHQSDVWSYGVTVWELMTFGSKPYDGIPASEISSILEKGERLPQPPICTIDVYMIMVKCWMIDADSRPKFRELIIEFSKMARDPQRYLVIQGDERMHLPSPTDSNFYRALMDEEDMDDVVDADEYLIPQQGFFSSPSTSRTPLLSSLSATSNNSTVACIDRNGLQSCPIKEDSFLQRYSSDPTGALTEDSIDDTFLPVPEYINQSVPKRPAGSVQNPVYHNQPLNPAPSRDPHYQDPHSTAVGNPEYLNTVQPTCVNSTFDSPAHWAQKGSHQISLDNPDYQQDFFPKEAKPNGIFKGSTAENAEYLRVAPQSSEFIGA
[10] abbreviates: 100 mg/kg BID oral (50 mg/kg for the first 4 days, 100 mg/kg from the 5th day), after 13 days.

T1 sequence (P00533 whole entry C797S/L858R, the tested form may be a part): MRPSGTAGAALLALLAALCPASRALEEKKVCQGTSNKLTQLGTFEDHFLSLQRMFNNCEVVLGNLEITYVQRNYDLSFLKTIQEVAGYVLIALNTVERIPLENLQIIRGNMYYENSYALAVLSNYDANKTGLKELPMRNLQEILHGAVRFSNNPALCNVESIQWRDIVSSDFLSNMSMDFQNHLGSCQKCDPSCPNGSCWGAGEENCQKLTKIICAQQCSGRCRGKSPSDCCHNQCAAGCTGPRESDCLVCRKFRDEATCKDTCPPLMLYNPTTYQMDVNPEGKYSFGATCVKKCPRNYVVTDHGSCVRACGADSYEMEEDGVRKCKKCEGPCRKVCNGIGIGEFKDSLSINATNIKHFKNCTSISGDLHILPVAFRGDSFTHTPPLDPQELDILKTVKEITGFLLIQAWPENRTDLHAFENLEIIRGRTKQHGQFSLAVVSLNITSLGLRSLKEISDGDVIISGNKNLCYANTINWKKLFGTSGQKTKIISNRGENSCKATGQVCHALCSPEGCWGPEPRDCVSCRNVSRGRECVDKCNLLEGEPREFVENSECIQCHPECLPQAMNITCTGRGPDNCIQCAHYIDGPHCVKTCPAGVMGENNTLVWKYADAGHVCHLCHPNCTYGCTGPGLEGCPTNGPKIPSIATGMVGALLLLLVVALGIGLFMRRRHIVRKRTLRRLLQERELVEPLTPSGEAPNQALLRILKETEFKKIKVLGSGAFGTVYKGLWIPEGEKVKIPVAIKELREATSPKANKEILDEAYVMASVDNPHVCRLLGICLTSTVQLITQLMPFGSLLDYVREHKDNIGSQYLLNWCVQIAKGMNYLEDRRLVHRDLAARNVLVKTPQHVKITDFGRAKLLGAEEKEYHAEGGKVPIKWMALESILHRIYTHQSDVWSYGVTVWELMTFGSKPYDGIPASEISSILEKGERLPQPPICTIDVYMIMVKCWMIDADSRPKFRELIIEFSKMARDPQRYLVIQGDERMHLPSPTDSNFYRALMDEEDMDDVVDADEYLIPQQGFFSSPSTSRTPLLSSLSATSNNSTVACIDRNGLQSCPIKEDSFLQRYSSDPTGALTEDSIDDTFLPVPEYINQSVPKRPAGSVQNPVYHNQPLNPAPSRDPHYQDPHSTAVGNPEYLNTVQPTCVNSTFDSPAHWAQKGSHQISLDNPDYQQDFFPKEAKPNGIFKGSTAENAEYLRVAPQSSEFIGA
Chain of Ba/F3-FL-EGFR-L858R (P00533 whole entry L858R): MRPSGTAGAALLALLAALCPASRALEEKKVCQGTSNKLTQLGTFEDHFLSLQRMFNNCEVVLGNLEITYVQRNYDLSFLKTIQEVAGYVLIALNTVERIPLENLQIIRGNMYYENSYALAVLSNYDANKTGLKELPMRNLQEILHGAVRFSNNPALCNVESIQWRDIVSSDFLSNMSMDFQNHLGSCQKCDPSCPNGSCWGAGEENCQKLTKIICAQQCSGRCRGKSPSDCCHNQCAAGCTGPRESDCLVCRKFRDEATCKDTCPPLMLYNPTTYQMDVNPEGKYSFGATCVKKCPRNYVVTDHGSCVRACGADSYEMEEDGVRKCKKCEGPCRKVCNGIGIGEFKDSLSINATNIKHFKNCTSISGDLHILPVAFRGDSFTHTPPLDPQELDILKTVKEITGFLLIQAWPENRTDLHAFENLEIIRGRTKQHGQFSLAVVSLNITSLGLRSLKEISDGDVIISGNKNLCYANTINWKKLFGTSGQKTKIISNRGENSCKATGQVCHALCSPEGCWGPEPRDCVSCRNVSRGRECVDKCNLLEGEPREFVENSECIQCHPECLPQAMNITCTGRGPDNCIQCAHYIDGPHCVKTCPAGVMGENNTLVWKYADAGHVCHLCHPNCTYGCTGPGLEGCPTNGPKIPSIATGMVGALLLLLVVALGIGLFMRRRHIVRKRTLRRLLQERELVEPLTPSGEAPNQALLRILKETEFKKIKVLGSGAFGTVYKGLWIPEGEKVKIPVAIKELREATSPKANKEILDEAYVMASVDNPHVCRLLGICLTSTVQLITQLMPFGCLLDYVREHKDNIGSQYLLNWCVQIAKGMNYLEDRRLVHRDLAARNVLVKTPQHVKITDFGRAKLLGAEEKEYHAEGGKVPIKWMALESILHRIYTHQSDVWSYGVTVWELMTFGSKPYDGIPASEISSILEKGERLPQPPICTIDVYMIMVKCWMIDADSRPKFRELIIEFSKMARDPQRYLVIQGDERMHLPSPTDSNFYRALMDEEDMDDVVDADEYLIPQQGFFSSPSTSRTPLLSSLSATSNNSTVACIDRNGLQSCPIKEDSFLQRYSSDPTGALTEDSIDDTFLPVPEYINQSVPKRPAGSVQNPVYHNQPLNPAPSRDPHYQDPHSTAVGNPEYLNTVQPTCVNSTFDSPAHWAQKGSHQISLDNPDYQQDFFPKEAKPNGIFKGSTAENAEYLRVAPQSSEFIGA
T2 sequence (P00533 whole entry, change not shown): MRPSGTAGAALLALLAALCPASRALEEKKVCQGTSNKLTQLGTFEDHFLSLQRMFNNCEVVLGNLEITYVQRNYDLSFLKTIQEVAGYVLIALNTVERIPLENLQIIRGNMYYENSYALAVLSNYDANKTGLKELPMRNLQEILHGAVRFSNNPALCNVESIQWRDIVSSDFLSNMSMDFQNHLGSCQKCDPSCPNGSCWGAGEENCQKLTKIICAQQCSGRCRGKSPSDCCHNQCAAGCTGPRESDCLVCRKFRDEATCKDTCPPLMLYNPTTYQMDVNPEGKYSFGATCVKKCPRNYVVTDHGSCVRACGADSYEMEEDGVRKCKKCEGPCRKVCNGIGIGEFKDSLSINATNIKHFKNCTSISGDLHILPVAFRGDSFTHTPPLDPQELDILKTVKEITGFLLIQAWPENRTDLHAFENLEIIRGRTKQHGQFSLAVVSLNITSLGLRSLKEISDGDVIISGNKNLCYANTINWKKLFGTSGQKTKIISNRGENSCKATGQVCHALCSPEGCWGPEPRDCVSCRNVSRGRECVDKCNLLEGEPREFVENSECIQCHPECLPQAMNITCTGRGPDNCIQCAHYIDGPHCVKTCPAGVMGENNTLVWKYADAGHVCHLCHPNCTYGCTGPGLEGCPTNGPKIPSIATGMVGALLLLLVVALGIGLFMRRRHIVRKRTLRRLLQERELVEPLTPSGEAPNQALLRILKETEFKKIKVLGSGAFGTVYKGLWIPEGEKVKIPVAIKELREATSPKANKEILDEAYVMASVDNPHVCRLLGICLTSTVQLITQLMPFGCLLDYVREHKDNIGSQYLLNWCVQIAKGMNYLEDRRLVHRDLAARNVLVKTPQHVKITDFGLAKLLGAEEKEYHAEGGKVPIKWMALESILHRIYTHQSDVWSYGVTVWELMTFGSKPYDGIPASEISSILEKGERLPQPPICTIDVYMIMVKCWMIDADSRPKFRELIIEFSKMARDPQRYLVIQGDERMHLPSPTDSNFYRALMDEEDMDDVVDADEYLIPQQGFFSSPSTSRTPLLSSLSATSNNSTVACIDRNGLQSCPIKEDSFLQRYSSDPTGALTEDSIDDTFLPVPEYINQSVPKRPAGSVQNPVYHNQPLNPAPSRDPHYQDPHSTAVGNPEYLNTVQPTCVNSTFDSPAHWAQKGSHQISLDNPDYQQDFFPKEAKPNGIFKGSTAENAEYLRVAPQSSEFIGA

The CLint scaled is the rate of metabolic loss divided by the concentration. In general, TGI refers to the reduction of tumour growth relative to the control group. Read a low TGI as a weaker effect on the tumour. For `CC(C)c1ccc(N2C[C@H](CS(C)(=O)=O)[C@H]2C)c2cnc(Nc3ccnc(-c4cnn(S(=O)(=O)C5CC5)c4)n3)cc12` [Compound H12], the IC50 in [1] came out at 0.51 nM; in data set [4], 4.3 nM; in data set [8], 0.43 nM; in [9] it was 1.9 nM. Moreover, in data set [2], the CLint scaled at 1 μM is 196 mL/min/kg. Further, the GI50 in [3] turned out to be 5.8 nM; in data set [6] it was 7.7 nM; in [7] it was 209 nM. Also, the “Tumor volume (mm^3)” value in data set [5] (setting [10]) amounted to 1341 mm^3. The inhibition of tumour growth (TGI) in data set [5] (setting [10]) was 68%.

As to `CC(C)c1ccc(N2CC(N(C)S(C)(=O)=O)C2)c2cnc(Nc3ccnc(N4CC[C@@H](O)[C@@H](F)C4)n3)cc12` [Compound P39a], the IC50 in [1] is 1.1 nM; in data set [4], 52 nM; in data set [8], 0.05 nM; in [9] it was 9.4 nM. Besides, in data set [2], the CLint scaled at 1 μM was 231 mL/min/kg. Also, the GI50 in [3] is 14 nM; in data set [6] it was 18 nM; in data set [7], 670 nM. Also, the “Tumor volume (mm^3)” value in data set [5] (100 mg/kg, BID, oral, after 13 consecutive days of administration) was 945 mm^3. The inhibition of tumour growth (TGI) in [5] (100 mg/kg, BID, oral, after 13 consecutive days) came out at 79%.
